In PubChem BioAssay AID248 (DTP/NCI, 2004):
Toxic doses and inconclusive results are not listed. Rule as the data show it: active = T/C of 150% or more; inactive = T/C below 125%.

Tested on: L1210 leukemia ip in BDF1 mice, survival T/C
Experiment: NCI In Vivo Anticancer Drug Screen. Data for tumor model L1210 Leukemia (intraperitoneal) in B6D2F1 (BDF1) mice
Conditions: endpoint: mean survival time, higher = longer survival
In short: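 Tumor was transplanted into mice, which were then dosed with test compound or vehicle alone. Survival was recorded for each group, and the treated figure was expressed relative to the control figure.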

Measured: T/C

CN(C)c1ccc(-c2ccc(N(C)C)cc2)cc1
inactive: dose: 50.0 mg/kg/injection, schedule: Q01DX001 (ip), vehicle: carboxymethylcellulose (CMC) 100 % of control | dose: 100.0 mg/kg/injection, schedule: Q01DX001 (ip), vehicle: carboxymethylcellulose (CMC) 100 % of control | dose: 200.0 mg/kg/injection, schedule: Q01DX001 (ip), vehicle: carboxymethylcellulose (CMC) 96 % of control | dose: 400.0 mg/kg/injection, schedule: Q01DX001 (ip), vehicle: carboxymethylcellulose (CMC) 106 % of control

COc1ccc(NC(=O)Nc2ccc(Cl)cc2C)cc1
inactive: dose: 100.0 mg/kg/injection, schedule: Q01DX009 (sc), vehicle: olive oil, sesame oil, peanut oil 100 % of control | dose: 100.0 mg/kg/injection, schedule: Q04DX003 (sc), vehicle: olive oil, sesame oil, peanut oil 101 % of control | dose: 200.0 mg/kg/injection, schedule: Q01DX009 (sc), vehicle: olive oil, sesame oil, peanut oil 102 % of control | dose: 200.0 mg/kg/injection, schedule: Q04DX003 (sc), vehicle: olive oil, sesame oil, peanut oil 100 % of control | dose: 400.0 mg/kg/injection, schedule: Q01DX009 (sc), vehicle: olive oil, sesame oil, peanut oil 96 % of control | dose: 400.0 mg/kg/injection, schedule: Q04DX003 (sc), vehicle: olive oil, sesame oil, peanut oil 98 % of control

COc1cc(C=C(C#N)C#N)ccc1OC(=O)c1cc(OC)c(OC)c(OC)c1
inactive: dose: 100.0 mg/kg/injection, schedule: Q04DX002 (ip), vehicle: gum acacia 98 % of control | dose: 200.0 mg/kg/injection, schedule: Q04DX002 (ip), vehicle: gum acacia 92 % of control | dose: 400.0 mg/kg/injection, schedule: Q04DX002 (ip), vehicle: gum acacia 92 % of control

CC(=O)N[C@H](CO)[C@H](O)c1ccc([N+](=O)[O-])cc1
inactive: dose: 100.0 mg/kg/injection, schedule: Q04DX003 (ip), vehicle: saline sonified 98 % of control | dose: 200.0 mg/kg/injection, schedule: Q04DX003 (ip), vehicle: saline sonified 104 % of control | dose: 400.0 mg/kg/injection, schedule: Q04DX003 (ip), vehicle: saline sonified 103 % of control
